Patent US9416145B2, “Compositions and methods for inhibiting activity of hypoxia-inducible transcription factor complex and its use for treatment of tumors” (priority 2012, dated 2016)

What was measured:
[1] = test system: VEGF mRNA in MCF7 cells; experiment: Real-time quantitative RT-PCR of VEGF mRNA in MCF7 cells; format: cell-based, human; details: hypoxic MCF7 cells, 200 nM and 600 nM
Protocol: We used real-time quantitative RT-PCR assays to determine the relative levels of VEGF mRNA in hypoxic cells treated with ETP compounds and control DKP compound. In parallel, cells treated with vehicle were used as controls. mRNA level of β-glucuronidase gene was used as a control in determining the relative levels of transcription.
MCF7 cells were maintained in RPMI-1640 media (Sigma) supplemented with 10% fetal bovine serum (Irvine Scientific). Cells were plated in 6-well dishes at a density of 2.4×10^5 cells/well using 2 mL of a 1.2×10^5 cell/mL suspension. […] After a 6 h incubation period at 37° C. in a humidified atmosphere with 5% CO2, hypoxia was induced by adding desferrioxamine mesylate (DFO, Sigma) to a final concentration of 300 μM and incubating cells for another 18 hours. Cells were washed twice with ice cold PBS and lysed immediately. Total RNA was isolated with RNeasy kit (Qiagen) according to the manufacturer's instructions and quantified by UV absorbance. The isolated RNA was further treated with DNase I (Ambion, DNAfree kit) to remove any remaining genomic DNA. Reverse transcription was performed with Powerscript II Reverse Transcriptase (Clontech) as recommended by the manufacturer.
Quantitative Reverse Transcript PCR (qRT-PCR) was employed to determine the effect of ETP compounds on VEGF and GLUT1 genes in HeLa cells both under normoxic and hypoxic conditions. For VEGF analysis, the forward primer 5′-AGGCCAGCACATAGGAGAGA-3′ and reverse primer 5′-TTTCCCTTTCCTCGAACTGA-3′ were used to amplify a 104-bp fragment from the 3′-translated region of the gene. For GLUT1 (SLC2A1) analysis we utilized the following sequences to yield a product of 179 bp: forward sequence 5′-TAGAAACATGGTTTTGAAATGC-3′, reverse sequence 5′-GGTAACAGGGATCAAACAGATT-3′. RNA levels were standardized by quantification of the β-glucuronidase as housekeeping gene. […] Data were analyzed with Applied Biosystems Sequence Detection System, version 1.2. […]

[2] = test system: HIF1 inducible promoter (hRE-hCMV-Luc) in MDA-MB-231 cells; experiment: Luciferase assay of hypoxia-inducible promoter activity; format: cell-based, human; details: MDA-MB-231 hRE-hCMV-Luc, 300 uM desferrioxamine mesylate 18 h; 200 nM and 600 nM
Protocol: We first examined the effect of designed ETPs on activation of the HIF1 inducible promoters. […] In the course of the experiment, cells were incubated with ETPs LS69, LS72, LS75 and DKP compound NP481. In parallel, untreated cells with only vehicle (DMSO) added, were used as controls. Hypoxia conditions were induced by incubating cells with 300 uM desferrioxamine mesylate for 18 h. Cells were harvested, lysed and the levels of luciferase were determined by a luminometer.
Luciferase assays. MDA-MB-231-hRE-Luc cells were maintained in high glucose Dulbecco's Modified Eagles' Medium (DMEM) supplemented with 10%© fetal bovine serum and 0.4 g/L Geneticin (G418 sulfate, RPI Corporation). Cells were plated in 24-well dishes (BD Falcon) at a density of 6×10^4 cells/well using 1 mL of a 6.5×10^4 cell/mL suspension. […] Cells were incubated for 6 h at 37° C. in a humidified atmosphere with 5% CO2. Hypoxia was induced by adding desferrioxamine mesylate (DFO, Sigma) to a final concentration of 300 μM, and cells were incubated for an additional 18 hours. Whole cell lysate was isolated by washing the cells twice with ice cold PBS and then adding 150 μL of Cell Culture Lysis Reagent (CCLR, Promega). Lysate was collected, centrifuged at 13,000 rpm at 4° C., aliquoted, and stored at −80° C. Luciferase assays were conducted by allowing whole cell lysate and Luciferase Assay Reagent (Promega) come to ambient temperature for 1 hour prior to use. Luciferase assays were conducted according to the manufacturer's instructions (Promega) using a Turner TD-20e Luminometer. Relative light intensity measurements were normalized by performing a Bradford assay to determine the protein content of the lysate used in the luciferase assay. Briefly, 50 μL of cell lysate/luciferase assay reagent mix was added to 200 μL of Bradford reagent and 750 μl, of Millipore water in a 1.5 mL cuvette. Protein standards were created in the range of 1 mg/mL to 10 μg/mL using an appropriate amount of a 1 mg/mL BSA solution. Absorbance was measured at 595 nm using a DU-800 spectrophotometer. The experiments were carried out in triplicate. The results are presented in FIG. 6 with the bar graphs represent mean values, and error bars—standard error of the mean value.

[3] = test system: A549 lung adenocarcinoma cell line; experiment: MTT cytotoxicity assay in A549 cells; format: cell-based; details: Homo sapiens; A549, 24 h treatment; read-out: EC50 (viability)
Protocol: (§1) FIG. 12 MTT cytotoxicity assay data for LS72 in A549 cell line. […]
(§2) Therefore the treatment of the cells was extended to 48 h in order to better determine its cytotoxicity.

[4] = MTT cytotoxicity assay in A549 cells; format: cell-based; details: human, A549 cells; A549, 48 h treatment, serum free F-12K medium
Protocol: as §1, §2

[5] = test system: c-Met protein in MDA-MB-231 cells; experiment: Western blot of c-Met protein levels in MDA-MB-231 cells; format: cell-based, human; details: MDA-MB-231, 400 nM, HIF1α induced with 150 μM CoCl2
Protocol: Western blot analysis of VEGF and c-Met protein levels. MCF7 and MDA-MB-231 cells were plated in 60 mm diameter cell culture dishes (BD Falcon) to a density of 1.0×10^6 cells/mL. […] All samples contained a final concentration 0.1-0.2% v/v of DMSO. After a 6 hour incubation period, hypoxia was induced with 300 μM DFO in MCF7 and with […] in MDA-MB-231 cells. Samples were incubated for an additional 18 hours. Total cellular proteins were extracted from the cells using cell lysis buffer according to manufacturer's protocol (Cell Signaling). Protein concentrations were measured with BCA Protein assay kit (Pierce/Thermo Scientific). Equal amounts of protein samples were subjected to SDS-PAGE and electroblotted to PVDF membrane (Bio-Rad). These were probed first with an anti-VEGF mouse monoclonal (sc-57496, Santa Cruz Biotechnology) or anti c-Met rabbit polyclonal antibody (sc-10, Santa Cruz Biotechnology), stripped with Restore Western Blot Stripping Buffer (Pierce/Thermo Scientific) and re-probed with a rabbit polyclonal anti-β-actin antibody (4867, Cell Signaling).
After washing with tris-buffered saline—Tween 20 (TBST) solution, the membranes were incubated with horseradish peroxidase (HRP)-conjugated secondary antibodies (Santa Cruz Biotechnology). Signals were detected by using SuperSignal chemiluminescent kit (Pierce/Thermo Scientific).

CN1C(=O)[C@]2(Cc3ccc(CCc4ccc(C[C@@]56SS[C@@](CO)(C(=O)N5C)N(C)C6=O)cc4)cc3)SS[C@@]1(CO)C(=O)N2C (racemic) [LS72, 4,4′-((ethane-1,2-diylbis(4,1-phenylene))bis(methylene))bis(1-(hydroxymethyl)-5,7-dimethyl-2,3-dithia-5,7-diazabicyclo[2.2.2]octane-6,8-dione)]
effect on VEGF mRNA level (in words) [1]: downregulated VEGF
hypoxia-inducible promoter activity (luciferase) [2]: significant reduction in hypoxia-inducible promoter activity
EC50 [3]: > 10000 nM
EC50 at 48 h [4]: 2800 nM
c-Met protein levels (western blot) [5]: significant downregulation
